The target in this test is T1, UCHL1 (Homo sapiens, UniProt P09936).
T1 construct: made in house; host or cells: HEK293T
T1 sequence (P09936 1-223): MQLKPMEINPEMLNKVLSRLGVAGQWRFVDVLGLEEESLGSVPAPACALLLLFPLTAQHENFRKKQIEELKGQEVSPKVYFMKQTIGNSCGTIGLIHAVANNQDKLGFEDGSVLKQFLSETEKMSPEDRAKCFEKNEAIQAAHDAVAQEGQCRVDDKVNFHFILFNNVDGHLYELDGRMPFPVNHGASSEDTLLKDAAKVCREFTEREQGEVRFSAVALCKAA
Kind of test: UCHL1 biochemical IC50 assay (fluorescence polarisation). The conditions noted are these: 30 min enzyme/compound pre-incubation at room temp, read after 2 hr incubation, read-out: Activity range (UCHL1 biochemical IC50 assay). In a few lines: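 Fluorescence polarisation (ex 540/em 590 nm) of 50 nM TAMRA-labelled ubiquitin–peptide isopeptide substrate was read at time zero and after 2 h at room temperature. Compounds (100–0.03 μM final, in duplicate) were given 30 min preincubation with N-FLAG UCHL1 from HEK293T cells in pH 7.5 Tris buffer.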

The source of these data is US11472798B2 (Mission Therapeutics Limited, priority 2014, dated 2022).

SMILES strings stand for the structures. pIC50: −log10 of the molar value. Where only a bound is given, the exact number is not on record here.

With `Cc1ccccc1-c1ccc(NC(=O)C2CCN(C#N)C2)nc1` (centres unmarked) [Example 136, 1-cyano-N-(5-(o-tolyl)pyridin-2-yl)pyrrolidine-3-carboxamide], the pIC50 is 5.00 to 6.00.
To `N#CN1CC[C@H](C(=O)Nc2ncc(N3Cc4ccccc4C3)s2)C1` [Example 97, (S)-1-cyano-N-(5-(isoindolin-2-yl)thiazol-2-yl)pyrrolidine-3-carboxamide] belongs above 6.00; to `N#Cc1ccc(-n2cnc(NC(=O)[C@H]3CCN(C#N)C3)c2)cc1C(F)(F)F` [Example 309, (S)-1-cyano-N-(1-(4-cyano-3-(trifluoromethyl)phenyl)-1H-imidazol-4-yl)pyrrolidine-3-carboxamide], above 6.00.
The value for `N#CN1CC[C@H](C(=O)Nc2cn(-c3cccc(C(F)(F)F)c3)cn2)C1` [Example 154, (S)-1-cyano-N-(1-(3-(trifluoromethyl)phenyl)-1H-imidazol-4-yl)pyrrolidine-3-carboxamide] was above 6.00; that for `N#CN1CC[C@H](C(=O)Nc2nc3c(s2)CN(S(=O)(=O)c2ccccc2)CC3)C1` [Example 204, (S)-1-cyano-N-(5-(phenylsulfonyl)-4,5,6,7-tetrahydrothiazolo[5,4-c]pyridin-2-yl)pyrrolidine-3-carboxamide] was above 6.00; that for `N#CN1CC[C@H](C(=O)Nc2ncc(N3CCCCC3)s2)C1` [Example 96, (S)-1-cyano-N-(5-(piperidin-1-yl)thiazol-2-yl)pyrrolidine-3-carboxamide] was above 6.00.
For `N#CN1CC[C@H](C(=O)Nc2cn(CC3CCOCC3)cn2)C1` [Example 165, (S)-1-cyano-N-(1-((tetrahydro-2H-pyran-4-yl)methyl)-1H-imidazol-4-yl)pyrrolidine-3-carboxamide], the pIC50 was 5.00 to 6.00.
Take `N#CN1CC[C@H](C(=O)Nc2ncc(C3CCOCC3)s2)C1` [Example 59, (S)-1-cyano-N-(5-(tetrahydro-2H-pyran-4-yl)thiazol-2-yl)pyrrolidine-3-carboxamide]: the pIC50 is above 6.00.
The value for `N#Cc1ccc(-n2cnc(NC(=O)[C@H]3CCN(C#N)C3)c2)cc1O[C@H]1CCOC1` [Example 247, (S)-1-cyano-N-(1-(4-cyano-3-(((S)-tetrahydrofuran-3-yl)oxy)phenyl)-1H-imidazol-4-yl)pyrrolidine-3-carboxamide] was above 6.00.
To `Cc1oncc1-c1ccc2nc(NC(=O)[C@H]3CCN(C#N)C3)sc2c1` [Example 126, (S)-1-cyano-N-(6-(5-methylisoxazol-4-yl)benzo[d]thiazol-2-yl)pyrrolidine-3-carboxamide] belongs above 6.00; to `Cc1nc(NC(=O)[C@H]2CCN(C#N)C2)sc1CN1CCOCC1` [Example 65, (S)-1-cyano-N-(4-methyl-5-(morpholinomethyl)thiazol-2-yl)pyrrolidine-3-carboxamide], above 6.00.
Regarding `N#CN1CC[C@H](C(=O)Nc2cn(Cc3ccncc3)cn2)C1` [Example 170, (S)-1-cyano-N-(1-(pyridin-4-ylmethyl)-1H-imidazol-4-yl)pyrrolidine-3-carboxamide], the pIC50 is above 6.00.
The value for `CC1CN(Cc2cnc(NC(=O)[C@H]3CCN(C#N)C3)s2)CC(C)O1` (stereo partly drawn) [Example 142, (3S)-1-cyano-N-(5-((2,6-dimethylmorpholino)methyl)thiazol-2-yl)pyrrolidine-3-carboxamide] was 5.00 to 6.00; that for `CC(C)(C)c1cnc(NC(=O)C2CCN(C#N)C2)s1` (centres unmarked) [Example 8, N-(5-(tert-butyl)thiazol-2-yl)-1-cyano-pyrrolidine-3-carboxamide] was 5.00 to 6.00; that for `N#CN1CCC(C(=O)Nc2ccc(-c3cccnc3)cn2)C1` (centres unmarked) [Example 33, N-([3,3′-bipyridin]-6-yl)-1-cyano-pyrrolidine-3-carboxamide] was 5.00 to 6.00.
Regarding `N#CN1CC[C@H](C(=O)Nc2cc(-c3ccncc3)ncn2)C1` [Example 274, (S)-1-cyano-N-(6-(pyridin-4-yl)pyrimidin-4-yl)pyrrolidine-3-carboxamide], the pIC50 is 5.00 to 6.00.
The value for `Cc1cccc2sc(NC(=O)[C@H]3CCN(C#N)C3)nc12` [Example 46, (S)-1-cyano-N (4-methylbenzo[d]thiazol-2-yl)pyrrolidine-3-carboxamide] was 4.52 to 5.00; that for `N#CN1CC[C@H](C(=O)Nc2ncc(N3CCOCC3)s2)C1` [Example 91, (S)-1-cyano-N-(5-morpholinothiazol-2-yl)pyrrolidine-3-carboxamide] was above 6.00.
The value for `Cc1noc(C)c1-c1ccc2cnc(NC(=O)[C@H]3CCN(C#N)C3)cc2c1` [Example 261, (S)-1-cyano-N-(6-(3,5-dimethylisoxazol-4-yl)isoquinolin-3-yl)pyrrolidine-3-carboxamide] was above 6.00.
`CN(C)C(=O)c1cccc(-c2cnc(NC(=O)[C@H]3CCN(C#N)C3)s2)c1` [Example 235, (S)-1-cyano-N-(5-(3-(dimethylcarbamoyl)phenyl)thiazol-2-yl)pyrrolidine-3-carboxamide]: the pIC50 is above 6.00.
The value for `N#CN1CCC(C(=O)Nc2nc3ccc(C(F)(F)F)cc3s2)C1` (centres unmarked) [Example 20, 1-cyano-N-(6-(trifluoro-methyl)benzo[d]thiazol-2-yl)pyrrolidine-3-carboxamide] was 5.00 to 6.00; that for `N#CN1C[C@@H](C(F)(F)F)[C@H](C(=O)Nc2ncc(-c3ccccc3)s2)C1` [Example 281, (3S, 4S)-1-cyano-N-(5-phenylthiazol-2-yl)-4-(trifluoromethyl)pyrrolidine-3-carboxamide] was above 6.00.
As to `C[C@H]1[C@@H](C(=O)Nc2ncc(-c3ccc(F)cc3)s2)CCN1C#N` [Example 73, (2S,3S)-1-cyano-N-(5-(4-fluorophenyl)thiazol-2-yl)-2-methylpyrrolidine-3-carboxamide], the pIC50 was above 6.00.
With `Cn1ncc2cc(-c3cnc(NC(=O)[C@H]4CCN(C#N)C4)s3)ccc21` [Example 226, (S)-1-cyano-N-(5-(1-methyl-1H-indazol-5-yl)thiazol-2-yl)pyrrolidine-3-carboxamide], the pIC50 was above 6.00.
As for `N#CN1CC[C@H](C(=O)Nc2ncc(-c3ccnnc3)s2)C1` [Example 213, (S)-1-cyano-N-(5-(pyridazin-4-yl)thiazol-2-yl)pyrrolidine-3-carboxamide], the pIC50 was above 6.00.
For `N#CN1CC[C@H](C(=O)Nc2nc3c(s2)CN(Cc2ccccc2)CC3)C1` [Example 201, (S)—N-(5-benzyl-4,5,6,7-tetrahydrothiazolo[5,4-c]pyridin-2-yl)-1-cyanopyrrolidine-3-carboxamide], the pIC50 was 5.00 to 6.00.
Consider `COc1ccccc1C(=O)N1CCc2nc(NC(=O)[C@H]3CCN(C#N)C3)sc2C1` [Example 192, (S)-1-cyano-N-(5-(2-methoxybenzoyl)-4,5,6,7-tetrahydrothiazolo[5,4-c]pyridin-2-yl)pyrrolidine-3-carboxamide], for which the negative-log IC50 (pIC50) was above 6.00.
To `N#CN1CC[C@H](C(=O)Nc2cc3cccnc3cn2)C1` [Example 256, (S)-1-cyano-N-(1,7-naphthyridin-6-yl)pyrrolidine-3-carboxamide] belongs 5.00 to 6.00.
To `N#CN1CC[C@H](C(=O)Nc2cc3cc(C(N)=O)ccc3cn2)C1` [Example 265, (S)-3-(1-cyanopyrrolidine-3-carboxamido)isoquinoline-6-carboxamide] belongs 5.00 to 6.00; to `CNC(=O)c1ccc(-c2cnc(NC(=O)[C@H]3CCN(C#N)C3)s2)cc1` [Example 64, (S)-1-cyano-N-(5-(4-(methyl-carbamoyl)phenyl)thiazol-2-yl)pyrrolidine-3-carboxamide], above 6.00.
To `C[C@H](c1ccccc1)n1cnc(NC(=O)[C@H]2CCN(C#N)C2)c1` [Example 167, (S)-1-cyano-N-(1-((R)-1-phenylethyl)-1H-imidazol-4-yl)pyrrolidine-3-carboxamide] belongs above 6.00; to `CN1CCCC(n2cnc(NC(=O)[C@H]3CCN(C#N)C3)c2)C1` (stereo partly drawn) [Example 187, (3S)-1-cyano-N-(1-(1-methylpiperidin-3-yl)-1H-imidazol-4-yl)pyrrolidine-3-carboxamide], above 6.00.
On to `CC(c1ccccc1)N(C)S(=O)(=O)c1ccc(NC(=O)[C@H]2CCN(C#N)C2)nc1` (stereo partly drawn) [Example 208, (3S)-1-cyano-N-(5-(N-methyl-N-(1-phenylethyl)sulfamoyl)pyridin-2-yl)pyrrolidine-3-carboxamide], for which the pIC50 was above 6.00.
With `C[C@H]1[C@@H](C(=O)Nc2cn([C@@H](C)c3ccccc3)cn2)CCN1C#N` [Example 172, (2S,3S)-1-cyano-2-methyl-N-(1-((S)-1-phenylethyl)-1H-imidazol-4-yl)pyrrolidine-3-carboxamide], the pIC50 is 5.00 to 6.00.
Consider `CC1CC(C(=O)Nc2cn(-c3ccccc3)cn2)CN1C#N` (mixture of isomers) [Example 89, I-cyano-5-methyl-N-(1-phenyl-1H-imidazol-4-yl)pyrrolidine-3-carboxamide], for which the pIC50 is 4.52 to 5.00.
To `N#CN1CCC(C(=O)Nc2ccc(Cl)cn2)C1` (centres unmarked) [Example 25, N-(5-chloropyridin-2-yl)-1-cyano-pyrrolidine-3-carboxamide] belongs 4.52 to 5.00; to `N#CN1CC[C@H](C(=O)Nc2cc3cc(-c4cn[nH]c4C(F)(F)F)ccc3cn2)C1` [Example 289, (S)-1-cyano-N-(6-(5-(trifluoromethyl)-1H-pyrazol-4-yl)isoquinolin-3-yl)pyrrolidine-3-carboxamide], above 6.00; to `N#CN1CC[C@H](C(=O)Nc2cn(C3CCCN(C(=O)c4ccccc4)C3)cn2)C1` (stereo partly drawn) [Example 184, (3S)—N-(1-(1-benzoylpiperidin-3-yl)-1H-imidazol-4-yl)-1-cyanopyrrolidine-3-carboxamide], above 6.00.

What is called pIC50 is the negative decadic logarithm of the IC50, by convention in mol/L.
